Columns and labels:
BMAL1 = biological target: T1, BMAL1 (Mus musculus, UniProt Q9WTL8); experiment: LC-MS/MS of pull-down precipitates, BMAL1; format: binding; details: Competitor 0 μM
T1 construct: expressed in transfected cells; host or cells: HEK 293T
Protocol: (§1) HEK293T cells were transiently transfected with tag-free hsClock and mBmal1. After 48 hours of transfection, cells were harvested and whole cell lysate was prepared with ice-cold lysis buffer (50 mM Tris-HCl pH 7.4, 2 mM EDTA, 1 mM MgCl2, 0.2% NP-40, 1 mM sodium orthovanadate, 1 mM sodium fluoride and protease inhibitor cocktail) followed by centrifugation at 7000×g at 4° C. for 10 minutes. Lysate was diluted with ice-cold 2× binding buffer (100 mM Tris-HCl pH 7.4, 300 mM NaCl, 0.2% NP-40, 2 mM sodium orthovanadate, 2 mM sodium fluoride, and protease inhibitor cocktail) 27. The lysate was divided into three fractions to be treated with either DMSO, or 20 μM of bitoinylated-CLK8 (bait) with or without 200 μM CLK8 (competitor). […]
(§2) The next step was to check for off-targets of CLK8. […] Since the amount of precipitated endogenous CLOCK was insufficient to be detected in LC-MS/MS, whole cell lysate of HEK 293T cells overexpressing CLOCK and BMAL1 were used for LC-MS/MS. We determined proteins that potentially bind to CLK8 by utilizing a minimum threshold for peptide spectrum matches and coverage equal to those of the main target, CLOCK. We also excluded proteins that have been detected in negative controls of the CRAPome database (32), assuming them as abundant sticky proteins. […] BMAL1 was detected in lower amounts when a competitor was present. […]

CLOCK = biological target: T2, CLOCK (Homo sapiens, UniProt O15516); experiment: LC-MS/MS of pull-down precipitates, CLOCK; format: binding; parameters: expressed in transfected cells; host or cells: HEK293T
T2 sequence (O15516 1-846): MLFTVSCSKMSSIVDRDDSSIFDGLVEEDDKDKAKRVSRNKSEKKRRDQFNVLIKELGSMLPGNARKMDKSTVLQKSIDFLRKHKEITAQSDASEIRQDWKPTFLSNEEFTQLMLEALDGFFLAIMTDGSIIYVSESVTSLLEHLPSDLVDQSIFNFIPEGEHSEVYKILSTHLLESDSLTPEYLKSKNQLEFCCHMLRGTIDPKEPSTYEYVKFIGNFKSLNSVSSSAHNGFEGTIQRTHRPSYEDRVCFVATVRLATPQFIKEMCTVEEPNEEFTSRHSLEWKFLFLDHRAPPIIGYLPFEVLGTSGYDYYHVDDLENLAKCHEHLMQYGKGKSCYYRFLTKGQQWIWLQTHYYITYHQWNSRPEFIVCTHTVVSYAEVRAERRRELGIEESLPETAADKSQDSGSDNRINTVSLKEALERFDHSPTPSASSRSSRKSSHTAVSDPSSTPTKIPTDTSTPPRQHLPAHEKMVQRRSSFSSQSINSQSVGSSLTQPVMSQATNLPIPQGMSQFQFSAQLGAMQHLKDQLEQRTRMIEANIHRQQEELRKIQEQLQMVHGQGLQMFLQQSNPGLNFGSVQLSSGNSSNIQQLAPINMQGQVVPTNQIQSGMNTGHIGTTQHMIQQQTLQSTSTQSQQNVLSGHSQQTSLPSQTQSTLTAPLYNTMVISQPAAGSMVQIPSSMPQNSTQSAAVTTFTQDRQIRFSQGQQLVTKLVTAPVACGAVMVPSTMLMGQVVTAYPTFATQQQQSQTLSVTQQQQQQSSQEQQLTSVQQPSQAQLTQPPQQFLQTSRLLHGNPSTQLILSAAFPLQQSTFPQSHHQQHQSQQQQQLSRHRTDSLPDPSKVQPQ
Protocol: as §1, §2

T1 sequence (Q9WTL8 whole entry): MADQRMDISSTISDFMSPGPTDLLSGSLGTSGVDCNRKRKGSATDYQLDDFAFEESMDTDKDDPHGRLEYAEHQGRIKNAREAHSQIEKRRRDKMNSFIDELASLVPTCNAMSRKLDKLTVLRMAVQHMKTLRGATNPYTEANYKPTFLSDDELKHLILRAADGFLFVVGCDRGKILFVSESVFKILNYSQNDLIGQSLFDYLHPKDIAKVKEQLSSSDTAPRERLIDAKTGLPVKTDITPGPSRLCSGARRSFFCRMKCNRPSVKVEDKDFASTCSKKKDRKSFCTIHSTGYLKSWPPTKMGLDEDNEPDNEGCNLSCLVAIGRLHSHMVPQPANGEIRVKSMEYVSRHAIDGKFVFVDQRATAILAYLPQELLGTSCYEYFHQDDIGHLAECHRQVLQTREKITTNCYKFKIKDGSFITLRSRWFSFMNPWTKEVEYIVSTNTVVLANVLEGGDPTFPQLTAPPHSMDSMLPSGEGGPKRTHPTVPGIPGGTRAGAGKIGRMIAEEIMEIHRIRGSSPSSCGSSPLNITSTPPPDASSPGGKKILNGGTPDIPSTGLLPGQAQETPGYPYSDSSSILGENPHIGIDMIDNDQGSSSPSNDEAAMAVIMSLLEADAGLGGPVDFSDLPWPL

`CC1(C)CCc2c(cc(OCC(=O)Nc3ccccc3C(N)=O)c3c(-c4ccccc4)cc(=O)oc23)O1` [CLK8, 2-[2-({12,12-dimethyl-4-oxo-6-phenyl-3,11-dioxatricyclo [8.4.0.0,2,7]tetradeca-1,5,7,9-tetraen-8-yl}oxy)acetamido] benzamide] was tested. Which “Peptide spectrum matches, BMAL1” value (BMAL1) did it give?
The value was 56.

And the “Peptide spectrum matches, CLOCK” value (CLOCK; Competitor 0 μM)?
Its value is 42.

And the “Peptide spectrum matches, CLOCK” value (CLOCK; Competitor 200 μM)?
The value was “not detected”.

Source: patent US12558342B2, “2-[2-({12,12-dimethyl-4-oxo-6-phenyl-3,11-dioxatricyclo[8.4.0.0,2,7]tetradeca-1,5,7,9-tetraen-8-yl}oxy)acetamido]benzamide and derivatives as inhibitor of clock:bmal1 interaction for the treatment of circadian rhythm diseases and disorders” (KOC UNIVERSITESI, priority 2019, dated 2026)
